SMILES strings stand for the structures. Like-named read-outs stand apart in the source and are kept apart here.

Data set [1] deals with Vesicular stomatitis virus rVSV-SARS-CoV-2-S. Particulars: inhibitor; read-out: EC50 rVSV-SARS-CoV-2-S, Vero.
The nature of a further data set: in vitro. Particulars: human, adult lung organoid monolayer.
The next data set has as its system SARS-CoV-2. Details: species or system human adult lung organoid-derived monolayers; SARS-CoV-2 infectious titre in organoid supernatants, plaque assay. Particulars: inhibitor; read-out: EC50 SARS-CoV-2, ALO.
Another data set has as its system DENV2. Details: DENV2 replication, plaque assay. To be noted: inhibitor; read-out: EC50 DENV2, Huh7.
Data set [2] has as its system SARS-CoV-2-nluc, WA1/2020. Particulars: inhibitor; read-out: EC50 SARS-CoV-2-nluc, Calu-3.
For data set [3], the system named is Venezuelan equine encephalitis virus VEEV (TC-83). To be noted: inhibitor; read-out: EC50 VEEV (TC-83), U-87 MG.
For data set [4], the system named is Vesicular stomatitis virus rVSV-SARS-CoV-2-S. To be noted: inhibitor; read-out: EC50 rVSV-SARS-CoV-2-S, Vero. This is another data set of the same source.
The next data set has as its system Huh7. Particulars: human, huh7 cells.
The next data set deals with Marburg virus MARV. Particulars: 48 h; inhibitor; read-out: EC50 MARV, Huh7.
A further data set deals with Ebola virus EBOV. Particulars: 48 h; inhibitor; read-out: EC50 EBOV, Huh7.

For orientation: EC50 means the concentration at which the effect is half-maximal. Regarding `Cc1cccc(/C=N/Nc2cc(N3CCOCC3)nc(OCCc3ccccn3)n2)c1` [Apilimod], the EC50 worked out at 12 nM in [1] and 420 nM with SARS-CoV-2. This molecule returned a CC50 in the data set “in vitro” of 9900 nM.

Turning to `COc1ccc(-c2cnc3c(C#Cc4cccnc4)snc3c2)cc1OC` [RMC-113], the concentration for a half-maximal effect (EC50) in the data set on DENV2 worked out at 1400 nM; in data set [2], 1450 nM; in data set [3] it was 1400 nM; in data set [4] it was 1800 nM; in the data set with Marburg virus MARV, 7800 nM; in the data set on Ebola virus EBOV it was 5000 nM. For the same molecule, the CC50 in the data set on Huh7 was > 10000 nM.
